Columns and labels:
human embryos = assay: single-cell/single-nuclei sequencing chromosome content analysis, human embryos; type: cell-based
Procedure: (§1) Embryos, mouse and human, were cultured in Global Total (Life-Global) for the duration of the experiments and with added compounds as outlined below. Incubation in RNA polymerase inhibitors triptolide (1 mM) or alpha amanitin (20 mg/ml) was performed from the 2PN stage (day1) to day3 of human development. Incubation in aphidicolin was performed at 2 mM. […] Mirin was used at a concentration of 50 mM. Olaparib was used to inhibit PARP at a concentration of 10 mM. All experiments were conducted during incubation at 37° C. with 5% CO2 and 19-20% O2. Chemical stock solutions were prepared in DMSO at concentrations at least 1000× higher than the final concentration.
Single cells from blastomeres were collected on the heated stage (Tokai Hit) of an Olympus IX71 inverted microscope equipped with Narishige micromanipulators and a zona pellucida laser (Hamilton-Thorne). Single nuclei were isolated from blastomeres by lysis and dissection of different nuclei using two […] diameter Piezo micropipettes and Holding pipette (Origio). Single embryo cells or nuclei were placed manually in single wells of a 96-well plate containing 9 ml of lysis buffer, prepared as a master mix of 798 ml H2O, 6 ml of 10 mg/mL Proteinase K solution (Sigma-Aldrich), and 96 ml 10× Single Cell Lysis and Fragmentation buffer (Sigma-Aldrich). Single cells/single nuclei were lysed by heating 96-well plates containing single cells/single nuclei at 50° C. for 1 hour, followed by incubation at 99° C. for four minutes using a PCR thermocycler. Single-cell/single-nuclei whole genome amplification (WGA) using degenerate oligo-nucleotide priming PCR (DOP-PCR) was performed using the SEQPLEX Enhanced DNA Amplification Kit (SEQXE, Sigma) according to the manufacturer's instructions. In addition, a modified version of the DOP-PCR protocol that allows inline indexing of WGA DNA was also applied. WGA DNA was subsequently processed for Illumina library sequencing preparation using standard TruSeq indexing methods via the NEBNext Ultra II DNA Library Prep Kit for Illumina (New England Biolabs). NEBNext Multiplex Oligos for Illumina (96 index primers) were used for four amplification cycles. Library DNA was quantified using Qubit dsDNA HS Assay Kit (Invitrogen, Carlsbad, CA, USA) and library size distribution was confirmed using a 2100 Bioanalyzer DNA 1000 Kit (Agilent, Santa Clara, CA, USA). A unimodal curve centered around 300-500 bp was scored as a successful library preparation. Subsequently, 30 mL of each pooled library was sent for sequencing at a concentration of 20 ng/ml. Mutiplex sequencing was performed using Illumina HiSeq 2500 single end indexed run (SR100) while targeting a coverage of approximately 1 million reads per cell/nuclei, sufficient for quantitative genome-wide copy number analysis.
Analysis of DNA sequencing data was performed as previously described (Baslan et al., 2015) with minor modifications as outlined below. Briefly, multiplex sequencing data were demultiplexed according to unique barcodes with reads assigned to their respective single-cell or single-nuclei. Unique reads were aligned to the reference human and mouse genome builds, hg19 and mm9, respectively. Each genome was partitioned into 5000 bins using a previously described algorithm (Varbin) that corrects for genome sequence mappability (Baslan et al., 2012; Navin et al., 2011). Uniquely mapped reads were sorted, indexed and subsequently counted within the partitioned genomic bins. For single-cell copy number inference, read count data were normalized genome-wide followed by CBS segmentation (Olshen et al., 2004) and transformed into integer copy number states using a least-squares fit approach (Baslan et al., 2015).
Copy number inference from single-nuclei sequencing data was performed similarly with the exception that bin read counts were initially processed using Kernel Density Estimation (KDE) resulting in two primary densities. […]

human zygotes = assay: DNA damage foci immunostaining in human zygotes/parthenotes; type: cell-based
Procedure: as §1
Artificial activation of human MII oocytes was performed using two pulses of 2.7 kV/cm at 50 ms using ECFG21 (Nepagene) in fusion buffer consisting of 0.25 M d-sorbitol buffer containing 0.1 mM calcium acetate, 0.5 mM magnesium acetate, 0.5 mM HEPES, and 1 mg ml^−1 fatty-acid-free BSA as previously described (Tachibana et al., 2013). Thereafter, oocytes were incubated for 3.5-4 h in 10 mg/ml puromycin, followed by a wash step and following culture in Global total.
Following the experimental exposures, mouse and human embryos were fixed in 2% paraformaldehyde (PFA) and 0.25% Triton X-100 in PBS for 10 minutes at room temperature, serially washed in phosphate-buffered solution (PBS) at room temperature, then stored in PBS at 4° C. until staining and imaging. Embryos were placed in 10-20 ml droplets of primary antibody solution within plastic tissue culture dishes covered with mineral oil for 1 hour at room temperature, serially washed (×2) in PBS containing 0.01% Triton X-100 to prevent embryos sticking to oil, then transferred to 10-20 ml secondary antibody solution and Hoechst (dilution 1:500) for 30 minutes. Embryos were then serially washed (×2) and placed in 5 ml droplets of PBS with 0.5% serum albumin in uncoated glass bottom dishes (Mattek) covered with embryo culture oil for imaging. The following primary antibodies were used across experiments as described above: Oct-4, γH2AX, RPA32, RPA32 S4/S8, RPA32 S33, 53BP1, RAD51, Centromere, and phospho-CHK1. […] The appropriate secondary antibodies conjugated with Alexa Fluor 488, Alexa Fluor 555, CF 568, or Alexa Fluor 647 were diluted at 1:500-1:1000. Ethynyl deoxyuridine (EdU) labeling of zygotes and embryos was performed using the labeling kit (Thermo Fisher Scientific) as described by the manufacturer. 10 mM EdU was added to culture medium for 1 h at the indicated time points, and cells were harvested and fixed thereafter. 5-ethynyl uridine (EU) labeling was performed by incubating day3 cleavage stage embryos for 4 hours in Global total containing 0.2 mM EU.
Embryos were imaged with confocal microscopy using a Zeiss LSM (LSM 710) at a magnification of 63× and the Zeiss Zen software. Images were obtained using 488-, 543- and 633-nm lasers and bright-field microscopy. The number of confocal sections was adjusted to capture the entire nucleus or the entire embryo according to the experimental design as described above. Cell numbers and staining foci numbers were counted manually. Nuclei were identified by the presence of Hoechst33342. Foci were identified if at least 3× greater intensity than nuclear average, spherical in appearance, and overlapping with Hoechst33342 staining. Inner cell masses were identified by the presence of Oct4 within a blastocyst embryo. Active DNA replication was identified by the presence of EdU. DNA damage was identified by the detection of γH2AX and RPA foci within the nucleus. Mechanisms of DNA repair were identified through the detection of RPA S4/S8, RPA S33, Rad51 and 53BP1 foci within the nucleus.

[1] = aphidicolin and G2 checkpoint kinase inhibitor at 15.5 h
[2] = human, aphidicolin incubation in G2 phase

## C[C@@]1(CO)[C@H](O)CC[C@@]2(C)[C@H]1CC[C@H]1C[C@@H]3C[C@@]12CC[C@]3(O)CO [aphidicolin]
Human embryos; 4 2PN zygotes, aphidicolin and CHK1 inhibitor at 18 h post ICSI
  chromosomal breaks identified: 7
Human embryos; addition of aphidicolin to CHK1 inhibition in G2 phase
  aneuploidy: further amplified
Human embryos; [1]
  chromosomes with one or more segmental copy-number transitions, share: 27%
  independent break points per embryo, average: 51
  whole-chromosome losses, share of aneuploid chromosomes in micronuclei: 73%
Human embryos; aphidicolin and G2 checkpoint kinase inhibitor at 15.5 h, 21 micronuclei from 4 zygotes
  total break sites: 331
Human embryos; combined aphidicolin exposure and G2 checkpoint inhibition
  human embryos aneuploid: all
Human zygotes; aphidicolin from 15.5 h post activation
  time to formation of foci for γH2AX and RPA32: ≤ 6 h
Human zygotes; human, aphidicolin incubation
  RPA32-positive foci per haploid nucleus, average: 1.8 per haploid nucleus
  γH2AX foci positive for RPA32: Approximately 10%
Human zygotes; [2]
  mean γH2AX foci: 21
  γH2AX foci, range: 0-51

From patent publication US20250034520A1, “INCREASING DEVELOPMENTAL POTENTIAL OF HUMAN PREIMPLANTATION EMBRYOS BY REDUCING GENETIC INSTABILITY, ANEUPLOIDIES AND CHROMOSOMAL MOSAICISM” (THE TRUSTEES OF COLUMBIA UNIVERSITY IN THE CITY OF NEW YORK, priority 2022, published 2025)
